Measurements as given in patent US10604480B2, “(Thio, oxo, and seleno) semicarbazone derivatives and their use for treating cancer” (RUTGERS, THE STATE UNIVERSITY OF NEW JERSEY, priority 2015, dated 2020).

How the values were obtained:
[1] = Liposome import assay (RZ-3 fluorescence); conditions: for Zn2+ shuttling into liposomes: external [Zn2+]free 10 μM
Description: However, in complete media containing 10% fetal bovine serum (FBS), Zn^2+-binding proteins from the serum (e.g. albumin) necessarily compete for Zn^2+ with any putative MC, making the effective [Zn^2+]free much lower than [Zn^2+]total.
(§1) DOPC-liposomes were prepared by film rehydration and extrusion followed by gel filtration and diluted to an OD600=0.06 in buffer. The size distribution of the liposomes was determined by dynamic light scattering (DLS) using a Malvern Zetasizer Nano ZS. Fluorescence measurements were taken on a Horiba Fluoromax-4 spectrofluorimeter in a 5×5 mm quartz cuvette with λex/λem=550/572 nm for RZ-3 and 490/515 nm for calcein. Initial Zn^2+ import/export was quantified by fitting the first 10-30 s of data after each treatment to a line and converted to units of flux using the following Eqn 1:
[formula] where Ji is the initial flux, ΔF/Δt is the slope of the fit line, Fmax is RZ-3 fluorescence in the presence of saturating Zn^2+ and 1% TritonX-100, Fmin is RZ-3 fluorescence in the presence of excess EDTA and 1% TritonX-100, [RZ3] is the concentration of encapsulated RZ-3, and SA/Vol is the surface area to volume ratio calculated assuming hollow spheres of the mean diameter determined by DLS. Intracellular [Zn^2+]free Imaging

HEK293 cells = assay: Intracellular [Zn2+]free imaging with FluoZin-3-AM, HEK293 cells; assay type: cell-based; conditions: for increase of intracellular [Zn2+]free (FZ3-AM fluorescence): HEK293 (non-cancer, p53-WT), complete media, confocal microscopy
Description: (§2) To minimize the potential for Zn^2+ contamination and contributions from poorly defined elements in complete media (e.g. FBS), cells were treated and imaged in Ca^2+ and Mg^2+-free Earle's Balanced Salt Solution supplemented with 10 mM HEPES pH 7.4 (EBSS/H (−)Ca/Mg). Excess ZnCl2 with the Zn^2+ ionophore pyrithione (PYR) was used as a positive control. Excess membrane-permeable Zn^2+ chelator N,N,N′,N′-tetrakis(2-pyridylmethyl)ethane-1,2-diamine (TPEN) was used as a negative control.
To normalize for differential dye loading, cells were then sequentially treated with excess PYR/ZnCl2, imaged, treated with TPEN, and imaged again. PYR/ZnCl2 and TPEN served to saturate and apoize the intracellular FZ3, respectively.
TOV112D or HEK293 cells (40,000 cells/well) were plated on either 8-well BD Falcon chambered culture slides (Corning Life Sciences) or 8-chambered #1.5 Nunc Lab-Tek II chambered coverglasses (Thermo Scientific) treated with poly-L-lysine. After 48 h, cells were washed 2×5 m in serum-free media and incubated with 1 μM FZ3-AM for 40 m at 37° C. Cells were then washed 2×5 m in either EBSS/H (−)Ca/Mg or phenol-red free DMEM+10% FBS containing the indicated treatments for 20 m before imaging. For nuclear colocalization, 1 μg/mL Hoechst 33342 was also included. Cells were imaged using a Zeiss LSM50 META NLO confocal microscope equipped with 37° C. environmental control chamber. FZ3 and Hoechst 33342 were excited at 488 nm (argon laser) and 790 nm (Chameleon Ti:sapphire laser), respectively. To determine the kinetics of fluorescence change, each background-subtracted image in the time-lapse series was integrated in ImageJ and normalized to the integrated fluorescence of the first frame after treatment. For quantification of intracellular [Zn^2+]free, each cell was analyzed in the treated, 50 μM PYR/ZnCl2 (1:1), and 100 μM TPEN images by taking the mean fluorescence of an ROI inside the cell subtracted by an ROI immediately outside the cell measured in ImageJ. The [Zn^2+]free for each cell was then calculated by Eqn 2:
[formula] […] To minimize the effects of outliers the lowest and highest 5% of cells in each series were rejected, and the remaining values averaged to give the value from that experiment. The number of cells analyzed in each trial ranged from 54-163. For nuclear colocalization, treated, PYR/ZnCl2, and TPEN treated images costained with Hoechst 33342 were aligned and each pixel subjected to Eqn. 2 in MATLAB (MathWorks).

TOV112D cells = assay: Intracellular [Zn2+]free imaging with FluoZin-3-AM, TOV112D cells; assay type: cell-based; conditions: ZMC1 alone without ZnCl2, EBSS/H (−)Ca/Mg
Description: as §2
To normalize for differential dye loading, cells were then sequentially treated with excess PYR/ZnCl2, imaged, treated with TPEN, and imaged again. […]
TOV112D or HEK293 cells (40,000 cells/well) were plated on either 8-well BD Falcon chambered culture slides (Corning Life Sciences) or 8-chambered #1.5 Nunc Lab-Tek II chambered coverglasses (Thermo Scientific) treated with poly-L-lysine. […] To determine the kinetics of fluorescence change, each background-subtracted image in the time-lapse series was integrated in ImageJ and normalized to the integrated fluorescence of the first frame after treatment. For quantification of intracellular [Zn^2+]free, each cell was analyzed in the treated, 50 μM PYR/ZnCl2 (1:1), and 100 μM TPEN images by taking the mean fluorescence of an ROI inside the cell subtracted by an ROI immediately outside the cell measured in ImageJ. […]

[2] = Liposomal leakage assay (calcein) and liposome size distribution
Description: To ensure that the fluorescence results were due to Zn^2+ transport and not to non-specific disruption of liposomal membranes, a liposomal leakage assay was performed using the self-quenching fluorophore calcein. When calcein is encapsulated at concentrations above 4 mM its fluorescence is decreased via self-quenching. Leakage is detected by a fluorescence increase as the dye dilutes and its fluorescence dequenches. […] Disruption of liposomes can also be detected by alteration of their size distribution.
as §1, with “1: […]” for “1:”

SMILES | Zn2+ shuttling into liposomes [1] | increase of intracellular [Zn2+]free (FZ3-AM fluorescence) (HEK293 cells) | ability to cross liposomal or cellular membranes [1] | increase in intracellular [Zn2+]free, ZMC1 alone (TOV112D cells) | calcein fluorescence increase (liposome leakage) ([2]; highest concentrations of ZMC1 and ZnCl2) | size distribution of liposomes ([2]; highest concentrations of ZnCl2 and ZMC1) | RZ-3 fluorescence after reversing [Zn2+]free gradient with excess external EDTA ([1]; ZMC1 added after EDTA, export of Zn2+ from liposomes) | increase in intracellular [Zn2+]free, ZMC1 alone (HEK293 cells; HEK293, ZMC1 alone without ZnCl2, EBSS/H (−)Ca/Mg)
C/C(=N\NC(=O)N1CCC1)c1ccccn1 [Example A6] | shuttled Zn^2+ into the liposomes | did not | – | – | – | – | – | –
O=C(O)CN(CC(=O)O)CC(=O)O [NTA] | did not | did not | cannot cross either liposomal or cellular membranes | – | – | – | – | –
C/C(=N\NC(=S)N1CCC1)c1ccccn1 [ZMC1] | – | increased | can cross biological membranes both as free drug and drug-Zn^2+ complex | neither cell type showed an increase | a significant fluorescence increase was not detected | identical to that of untreated liposomes | time dependent decrease | neither cell type showed an increase
